The test system of data set [1] is guinea pig tracheal smooth muscle (MABA). The data set is described as follows: MABA activity: relaxation of CCh pre-constricted guinea pig isolated trachea. The following applies: Cavia porcellus; CCh 3×10^−6 mol/L. On the procedure:
(1) The Constriction Effect of Tracheal Smooth Muscle of Guinea Pig Induced by the Example Compounds Antagonizing Carbachol (CCh)
(§1) Preparation of an isolated tracheal smooth muscle specimen of a guinea pig: same as Experiment Example 1.
Administration Method: After the trachea flake were stabilized, carbachol with a final concentration of 3×10^−6 mol/L was added, and administration was started when the pressure value of the trachea flake was increased to a stable platform. The experiments were divided into blank group and each test sample administration group. DMSO solution prepared from K—H solution and 50 μl of each test sample solution were added to each group respectively. The test sample administration group was added with 10^−9, 0.3×10^−8, 10^−8, 0.3×10^−7, 10^−7, 0.3×10^−6 and 10^−6 mol/L of test compound and control substance at cumulative concentration. The blank group was added with corresponding diluted DMSO solution. Medlab was used to record the relaxation degree of smooth muscle of the trachea flake. Finally, isoproterenol with a final concentration of 10^−5 mol/L was added as 100% relaxation.

In data set [2] the test system is M receptor of guinea pig tracheal smooth muscle. Kind of data set: MA activity: guinea pig isolated trachea, propranolol blocks β receptor, CCh constriction. The note with it: Cavia porcellus; propranolol 10^−5 mol/L, CCh 3×10^−6 mol/L. As to the method:
(2) Blocking Effect of Example Compounds on M Receptor of Guinea Pig Tracheal Smooth Muscle
as §1
Administration method: After trachea flake was stabilized, propranolol hydrochloride solution with a final concentration of 10^−5 mol/L was added to block β receptor for 10 min, carbachol with a final concentration of 3×10^−6 mol/L was added (observing M receptor antagonism of compound after propranolol blocks β receptor), and administration was started when the pressure value of the trachea flake was increased to a stable platform. The experiments were divided into a blank group, a propranolol+blank group, each test sample administration group and a propranolol+each test sample administration group. DMSO solution prepared by K—H solution and 50 μl of test sample solution were added to each group of the blank group and each test sample administration group respectively. The propranolol+blank group and propranolol+each test sample administration group were added with 50 μl propranolol solution for 10 min respectively, and then added with DMSO solution prepared from K—H solution and 50 μl of test sample solution. The test sample administration group was added with the compounds to be tested with final concentrations of 10^−9, 0.3×10^−8, 10^−8, 0.3×10^−7, 10^−7, 0.3×10^−6 and 10^−6 mol/L at cumulative concentration, and the blank group was added with corresponding diluted DMSO solution. The propranolol+each test sample administration group was added with propranolol for 10 min, and then added with the compounds to be tested with final concentrations of 10^−9, 0.3×10^−8, 10^−8, 0.3×10^−7, 10^−7, 0.3×10^−6 and 10^−6 mol/L at cumulative concentration. After the propranolol+blank group was added with propranolol for 10 min, corresponding diluted DMSO solution was added. Medlab was used to record the relaxation degree of tracheal smooth muscle, finally sodium nitroprusside with a final concentration of […] was added as 100% relaxation.

Data set [3] has as its system β2 receptor in guinea pig tracheal smooth muscle. The data set is described as follows: BA activity: guinea pig isolated trachea pre-treated with histamine. The note with it: Cavia porcellus, read-out: BA (EC50, nM). As to the method:
(3) The Antagonism of the Example Compounds on β2 Receptor in Guinea Pig Tracheal Smooth Muscle
as §1
Administration Method: After the trachea flake was stabilized, histamine solution with a final concentration of 3×10^−5 mol/L was added for 10 min, carbachol with a final concentration of 3×10^−6 mol/L was added (observing β receptor antagonism), and administration was started when the pressure value of the trachea flake was increased to a stable platform. The experiments were divided into a blank group, a histamine+blank group, each test sample administration group and a histamine+each test sample administration group. DMSO solution prepared by K—H solution and 50 μl of test sample solution were added to each group of the blank group and each test sample administration group respectively. The histamine+blank group and histamine+each test sample administration group were added with 50 μl histamine solution for 10 min respectively, then added with DMSO solution prepared by K—H solution and 50 μl test sample solution. The test sample administration group was added with the compounds to be tested with final concentrations of 10^−9, 0.3×10^−8, 10^−8, 0.3×10^−7, 10^−7, 0.3×10^−6 and 10^−6 mol/L at cumulative concentration, and the blank group was added with corresponding diluted DMSO solution. The histamine+each test sample administration group was added with histamine for 10 min, and then added with the test compounds with final concentrations of 10^−9, 0.3×10^−8, 10^−8, 0.3×10^−7, 10^−7, 0.3×10^−6 and 10^−6 mol/L at cumulative concentration. After the histamine+blank group was added with histamine for 10 m, corresponding diluted DMSO solution was added. Medlab was used to record the relaxation degree of smooth muscle of the trachea flake. Finally theophylline with a final concentration of 2×10^−4 mol/L was added as 100% relaxation.

The subject of data set [4] is heart rate of Beagle dogs. The data set is described as follows: Heart rate changes after iv administration in Beagle dogs. Format: in vivo, Beagle dog. As to the method: Beagle dogs were randomly divided into two groups, half male and half female, and were intravenously injected (iv) with 7.5% ethanol solution of compounds of the invention and control compound. Each compound was set up in two dosage groups of 0.01 mg/kg and 0.10 mg/kg.

Data set [5] can be described thus: Liver microsome metabolic stability in vitro (human). The note with it: Human liver microsomes. As to the method: (§2) The area ratio of the 0 min sample was taken as 100%, and the remaining percentage of the compound after incubation at different times was obtained at each time point by comparison with the sample. With the natural logarithm of this percentage on the ordinate and time on the abscissa, a scatter plot was drawn to simulate a straight line with a negative slope of k. The parameters were calculated according to the formula.
(§3) Liver weight indicates the liver weight (g) per kilogram of body weight, and P450 indicates the amount (mg) of P450 enzyme per gram of liver.

A short description of data set [6]: Liver microsome metabolic stability in vitro (SD rat). The following applies: SD rat liver microsomes. On the procedure:
as §2, §3

Data set [7] in a line: Liver microsome metabolic stability in vitro (Beagle dog). The note with it: Beagle dog liver microsomes. On the procedure:
as §2, §3

Data set [8] can be described thus: Lung homogenate stability in vitro (human). Format: in vitro ADME. The note with it: 8 h, 37° C.
Data set [9] in a line: Lung homogenate stability in vitro (dog). Format: in vitro ADME, Beagle dog. The note with it: 8 h, 37° C. On the procedure: The compounds of the invention were respectively incubated with the lung homogenate of Beagle dogs for 8 hours in a water bath at 37° C., and sample was analysed by LC-MS/MS when the reaction was terminated.

Molecules are shown by their SMILES.

For `O=c1ccc2c([C@@H](O)CNCCCCCCCCC[N+]34CCC(CC3)[C@@H](OC[C@@](O)(c3ccccc3)C3CCCC3)C4)ccc(O)c2[nH]1.[Br-]` [Compound 12], the results for the EC50 in data set [1], in data set [2] and in [3] were 5.8 ± 1.4 nM, 20.1 ± 2.8 nM and 13.8 ± 2.3 nM, respectively. The “0.5-4 h area increase under heart rate curve (%)” value (shortened to “0.5-4 h area increase … (%)”) in data set [4] (0.01 mg/kg iv) worked out at 1.2%; in data set [4] (0.10 mg/kg iv), 3.6%. The “liver extraction rate (ERh)” value stood at 0.96 in data set [5], 0.98 in data set [6] and 0.93 in data set [7]. Further, the “Residual rate after incubation of human lung homogenate (%)” value in data set [8] is on record as 98%. For the same compound, the “Residual rate after incubation of dog lung homogenate (%)” value in [9] came to 91%.

With `CC(Cc1ccc(OCC[N+]23CCC(CC2)[C@@H](OC[C@@](O)(c2ccccc2)C2CCCC2)C3)cc1)NC[C@H](O)c1ccc(O)c(NC=O)c1` (stereo partly drawn) [Compound 61, (R)-(−)-3-[(R)-2-hydroxy-2-cyclopentyl-2-phenyl]ethoxy]-1-{2-[4-(2-{(R)-[2-hydroxy-2-(3-formamido-4-hydroxy)phenyl]ethylamino}propyl)phenoxy]ethyl}-1-azabicyclo[2,2,2]octylonium bromide], the EC50 in [1] came to 5 ± 1.1 nM; in data set [2] it was 20.6 ± 1.8 nM; in [3], 12.9 ± 1.8 nM. For the same compound, the “0.5-4 h area increase … (%)” value in data set [4] (0.01 mg/kg iv) was 0%; in data set [4] (0.10 mg/kg iv) it was 2.1%. The results for the “liver extraction rate (ERh)” value in data set [5], in data set [6] and in data set [7] were 0.98, 0.95 and 0.97, respectively. Further, the “Residual rate after incubation of human lung homogenate (%)” value in [8] was determined as 92%. Besides, the “Residual rate after incubation of dog lung homogenate (%)” value in data set [9] was determined as 89%.

On to `CC(NC[C@H](O)c1ccc(O)c(CO)c1)c1ccc(OCCC[N+]23CCC(CC2)[C@@H](OC[C@@](O)(c2ccccc2)C2CCCC2)C3)cc1` (some centres unmarked) [Compound 69], for which the EC50 worked out at 7.6 ± 1.8 nM in [1], 27.7 ± 3.4 nM in data set [2] and 18.7 ± 2.8 nM in data set [3]. Besides, the “0.5-4 h area increase … (%)” value is reported as −5.1% in data set [4] (0.01 mg/kg iv) and −3.4% in data set [4] (0.10 mg/kg iv). Moreover, the “liver extraction rate (ERh)” value is 0.95 in data set [5], 0.96 in data set [6] and 0.94 in data set [7]. Besides, the “Residual rate after incubation of human lung homogenate (%)” value in [8] was found to be 94%. Besides, in data set [9], the “Residual rate after incubation of dog lung homogenate (%)” value was found to be 90%.

Take `CC(Cc1ccc(OCCC[N+]23CCC(CC2)[C@@H](OC[C@@](O)(c2ccccc2)C2CCCC2)C3)cc1)NC[C@H](O)c1ccc(O)c2[nH]c(=O)ccc12.[Br-]` (some centres unmarked) [Compound 80]: the concentration giving a half-maximal response (EC50) in [1] stood at 3.3 ± 0.9 nM; in [2] it was 13.3 ± 1.2 nM; in data set [3], 9.9 ± 1.7 nM. Moreover, the “0.5-4 h area increase … (%)” value is 4% in data set [4] (0.01 mg/kg iv) and −5.1% in data set [4] (0.10 mg/kg iv). Also, the “liver extraction rate (ERh)” value in data set [5] is reported as 0.92; in [6], 0.92; in [7] it was 0.91. Moreover, the “Residual rate after incubation of human lung homogenate (%)” value in data set [8] is given as 92%. The “Residual rate after incubation of dog lung homogenate (%)” value in [9] turned out to be 92%.

Regarding `CC(NC[C@H](O)c1ccc(O)c(NC=O)c1)c1ccc(OCCC[N+]23CCC(CC2)[C@@H](OC[C@@](O)(c2ccccc2)C2CCCC2)C3)cc1.[Br-]` (some centres unmarked) [Compound 94], the EC50 in data set [1] was determined as 19.8 ± 5.4 nM; in data set [2] it was 43.5 ± 4.2 nM; in data set [3] it was 33.5 ± 5.7 nM. Further, the “0.5-4 h area increase … (%)” value in [4] (0.01 mg/kg iv) is listed as −2.8%; in [4] (0.10 mg/kg iv), 4.6%. Moreover, the “liver extraction rate (ERh)” value in data set [5] was 0.93; in [6], 0.94; in [7] it was 0.94. In data set [8], the “Residual rate after incubation of human lung homogenate (%)” value came to 91%. Besides, in [9], the “Residual rate after incubation of dog lung homogenate (%)” value is on record as 96%.

Turning to `O=CNc1cc([C@@H](O)CNCCCOc2ccc(OCCC[N+]34CCC(CC3)[C@@H](OC[C@@](O)(c3ccccc3)C3CCCC3)C4)cc2)ccc1O` [Compound 113, (R)-(−)-3-[(R)-2-hydroxy-2-cyclopentyl-2-phenyl]ethoxy-1-{3-[4-(3-{(R)-[2-hydroxy-2-(3-formamido-4-hydroxy)phenyl]ethylamino}propoxy)phenoxy]propyl}-1-azabicyclo[2,2,2]octylonium bromide], the figures for the 50% effective concentration (EC50) in data set [1], in data set [2] and in [3] were 7.2 ± 1.4 nM, 15.6 ± 2.6 nM and 17.6 ± 1.9 nM, respectively. For the same compound, the “0.5-4 h area increase … (%)” value in data set [4] (0.01 mg/kg iv) is −3.4%; in data set [4] (0.10 mg/kg iv), 3.3%. The “liver extraction rate (ERh)” value in [5] is listed as 0.97; in [6], 0.96; in data set [7], 0.96. Besides, the “Residual rate after incubation of human lung homogenate (%)” value in data set [8] turned out to be 93%. Moreover, in data set [9], the “Residual rate after incubation of dog lung homogenate (%)” value came out at 93%.

In the case of `OCc1cc([C@@H](O)CNCCCOc2ccc(OCCC[N+]34CCC(CC3)[C@@H](OC[C@@](O)(c3ccccc3)C3CCCC3)C4)cc2)ccc1O.[Br-]` [Compound 122], the EC50 in [1] was 15.6 ± 3.6 nM; in data set [2], 56.7 ± 6.6 nM; in [3], 36.8 ± 4.1 nM. For the same compound, the figures for the “0.5-4 h area increase … (%)” value in data set [4] (0.01 mg/kg iv) and in data set [4] (0.10 mg/kg iv) were 6.6% and 0%, respectively. Further, the “liver extraction rate (ERh)” value was 0.93 in [5], 0.97 in data set [6] and 0.98 in data set [7]. Moreover, the “Residual rate after incubation of human lung homogenate (%)” value in data set [8] is given as 95%. Moreover, the “Residual rate after incubation of dog lung homogenate (%)” value in data set [9] came out at 92%.

For the compound `O=c1ccc2c([C@@H](O)CNCCCOc3ccc(OCCC[N+]45CCC(CC4)[C@@H](OC[C@@](O)(c4ccccc4)C4CCCC4)C5)cc3)ccc(O)c2[nH]1.[Br-]` [Compound 131], the EC50 stood at 4 ± 1 nM in data set [1], 30.2 ± 8.1 nM in [2] and 9.2 ± 1.6 nM in data set [3]. In addition, the results for the “0.5-4 h area increase … (%)” value in [4] (0.01 mg/kg iv) and in data set [4] (0.10 mg/kg iv) were 10% and 2.9%, respectively. The figures for the “liver extraction rate (ERh)” value in data set [5], in [6] and in data set [7] were 0.99, 0.93 and 0.93, respectively. In data set [8], the “Residual rate after incubation of human lung homogenate (%)” value worked out at 90%. The “Residual rate after incubation of dog lung homogenate (%)” value in [9] turned out to be 94%.

(Values after patent publication US11447485B2, “Class of bifunctional compounds with quanternary ammonium salt structure” (Beijing Showby Pharmaceutical Co., Ltd., priority 2016, dated 2022).)
